# Measured values as given in patent publication US8895753B2, “S1P receptor modulating agent” (Meiji Seika Pharma Co., Ltd., priority 2011, dated 2014).
# Columns and labels:
# Human S1P3 receptor = Human S1P3 receptor (Homo sapiens, UniProt Q99500); test: Agonist activity at an S1P3 receptor ([35S]-GTPγS exchange reaction at 1000 nM); assay type: biochemical; settings: read-out: percent of the maximal agonist activity at S1P3 receptor
# Experimental: (§1) By using membrane fractions prepared from a human S1P1 receptor expressing cells (Multispan Ltd.), the agonist activity of each test compound was measured by [^35S]-GTPγS exchange reaction in accordance with a standard procedure (Methods in Molecular Biology, Vol. 552, p 143-151 (2009)), and EC50 (nM) of each test compound was computed.
# By using membrane fractions prepared from Human S1P3 receptor expressing cells (Multispan Inc.), the agonist activity of the compound in the present invention was measured by a [^35S]-GTPγS exchange reaction at 1000 nM by the similar method of the Experimental Example 2.
# Human S1P1 receptor [1] = target: T1, Human S1P1 receptor (Homo sapiens, UniProt P21453); test: Agonist activity at an S1P1 receptor (reporter assay, EDG1-bla/U2OS cells); assay type: cell-based; set-up: host or cells: U2OS (EDG1-bla/U2OS); settings: S1P maximum response = 100%
# T1 sequence (P21453 whole entry): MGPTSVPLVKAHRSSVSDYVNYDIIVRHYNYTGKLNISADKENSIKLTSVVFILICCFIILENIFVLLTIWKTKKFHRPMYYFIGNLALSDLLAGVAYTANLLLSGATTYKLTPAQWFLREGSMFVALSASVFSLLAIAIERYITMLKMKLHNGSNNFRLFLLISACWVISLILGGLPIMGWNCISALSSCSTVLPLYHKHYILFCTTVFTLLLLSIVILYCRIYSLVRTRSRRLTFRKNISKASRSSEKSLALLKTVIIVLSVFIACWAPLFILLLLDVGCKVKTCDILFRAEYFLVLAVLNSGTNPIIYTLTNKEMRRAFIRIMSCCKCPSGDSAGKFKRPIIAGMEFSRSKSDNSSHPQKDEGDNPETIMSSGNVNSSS
# Experimental: Human S1P1 receptor gene recombinant EDG1-bla/U2OS cells (Life Technologies Japan Ltd.) were plated in a 96-well half-sized clear bottom black plate at a density of 10000 cells/32 μL/well, and then the plate was incubated at 37° C. in a 5% CO2 incubator for 48 hours. A culture medium containing each test compound prepared as a 5× concentrate was added at 8 μL/well, and the plate was incubated at 37° C. in a 5% CO2 incubator for 5 hours. The substrate (LiveBLAzer™-FRET B/G substrate (CCF4-AM), Life Technologies Japan Ltd.) prepared as a 6× concentrate was added at 8 μL into each well, and the plate was incubated at room temperature for 2 hours in the dark. The fluorescence intensity of each well was detected using a bottom-reading fluorescence microplate reader (EnVision: ParkinElmer) at one excitation wavelength and 2 wavelengths for fluorescence emission (Ex409 nm, Em460 nm, Em530 nm). The intensity ratio of fluorescence at 460 nm/530 nm was calculated for each well. The maximum response ratio confirmed from the dose response of SIP was expressed as 100%. The concentration of a test compound required to stimulate 50% of its maximal activation was computed as EC50 (nM).
# Human S1P4 receptor = target: T2, Human S1P4 receptor (Homo sapiens, UniProt O95977); test: Agonist activity at an S1P4 receptor (calcium influx); assay type: cell-based; settings: at 1000 nM; read-out: activity at S1P4 receptor (elevation of intracellular calcium)
# T2 sequence (O95977 1-384): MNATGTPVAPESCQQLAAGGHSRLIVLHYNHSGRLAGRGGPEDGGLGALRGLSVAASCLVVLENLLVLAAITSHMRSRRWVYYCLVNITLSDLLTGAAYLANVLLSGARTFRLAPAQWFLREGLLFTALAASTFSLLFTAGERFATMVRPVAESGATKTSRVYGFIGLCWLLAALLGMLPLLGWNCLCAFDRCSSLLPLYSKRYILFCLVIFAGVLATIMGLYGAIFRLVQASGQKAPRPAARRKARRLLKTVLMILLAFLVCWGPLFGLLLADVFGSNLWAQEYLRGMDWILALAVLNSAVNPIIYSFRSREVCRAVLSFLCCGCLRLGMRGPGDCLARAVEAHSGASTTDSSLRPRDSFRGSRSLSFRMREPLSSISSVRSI
# Experimental: By using Human S1P4 receptor expressing cells (Multispan Inc. CG1052-1), the elevation of intracellular calcium concentration via agonist activity by the addition of 1000 nM was measured by Fret method (fluorescence resonance energy transfer).
# Human S1P1 receptor [2] = target: T1, Human S1P1 receptor; test: Agonist activity at an S1P1 receptor ([35S]-GTPγS exchange reaction, membrane fractions); assay type: biochemical; settings: read-out: EC50, agonist activity at S1P1 receptor (GTP exchange reaction)
# Experimental: as §1
# Sequence of Human S1P3 receptor (Q99500 whole entry): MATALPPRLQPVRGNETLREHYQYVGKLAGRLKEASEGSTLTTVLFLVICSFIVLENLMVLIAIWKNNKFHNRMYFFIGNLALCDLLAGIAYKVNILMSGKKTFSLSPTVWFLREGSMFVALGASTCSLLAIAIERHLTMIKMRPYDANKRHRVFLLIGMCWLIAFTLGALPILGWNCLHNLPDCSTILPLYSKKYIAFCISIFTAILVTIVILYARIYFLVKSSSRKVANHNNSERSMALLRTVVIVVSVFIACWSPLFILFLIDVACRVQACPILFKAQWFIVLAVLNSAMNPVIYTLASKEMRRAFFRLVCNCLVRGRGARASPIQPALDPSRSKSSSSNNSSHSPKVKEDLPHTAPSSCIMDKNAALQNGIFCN
SMILES,Emax at 1 µM (Human S1P3 receptor) [%],EC50 (Human S1P1 receptor [1]) [nM],activation at 1 µM (Human S1P4 receptor) [%],EC50 (Human S1P1 receptor [2]) [nM]
"CCOc1ccc(-c2cnc(-c3ccc(CN4CC(C(=O)O)C4)cc3)s2)cc1 [Example 31, 1-(4-(5-(4-ethoxyphenyl)thiazol-2-yl)benzyl)azetidine-3-carboxylic acid]",< 20,≤ 100,< 20,≤ 50
"O=C(O)C1CN(Cc2ccc(-c3ncc(-c4ccc(C5CCCC5)cc4)s3)cc2)C1 [Example 34, 1-(4-(5-(4-cyclopentylphenyl)thiazol-2-yl)benzyl)azetidine-3-carboxylic acid]",< 20,≤ 1,< 20,≤ 10
"O=C(O)C1CN(Cc2ccc(-c3ncc(-c4ccc(C5CCCCC5)cc4)s3)cc2)C1 [Example 36, 1-(4-(5-(4-cyclohexylphenyl)thiazol-2-yl)benzyl)azetidine-3-carboxylic acid]",< 20,≤ 10,< 20,≤ 100
"Cc1cc(CN2CC(C(=O)O)C2)ccc1-c1ncc(-c2ccc(OC(C)C)c(Cl)c2)s1 [Example 37, 1-(4-(5-(3-chloro-4-isopropoxyphenyl)thiazol-2-yl)-3-methylbenzyl)azetidine-3-carboxylic acid]",20 to 50,≤ 1,< 20,≤ 10
CCCOc1ccc(-c2cnc(-c3ccc(CN4CC(C(=O)O)C4)cc3)s2)cc1 [Example 38],< 20,≤ 100,< 20,≤ 50
"CCCc1ccc(-c2cnc(-c3ccc(CN4CC(C(=O)O)C4)cc3)s2)cc1 [Example 45, 1-(4-(5-(4-propylphenyl)thiazol-2-yl)benzyl)azetidine-3-carboxylic acid]",< 20,≤ 10,< 20,≤ 50
"CC(C)c1ccc(-c2cnc(-c3ccc(CN4CC(C(=O)O)C4)cc3)s2)cc1 [Example 46, 1-(4-(5-(4-isopropylphenyl)thiazol-2-yl)benzyl)azetidine-3-carboxylic acid]",< 20,≤ 10,< 20,≤ 50
"CCCCc1ccc(-c2cnc(-c3ccc(CN4CC(C(=O)O)C4)cc3)s2)cc1 [Example 47, 1-(4-(5-(4-butylphenyl)thiazol-2-yl)benzyl)azetidine-3-carboxylic acid]",< 20,≤ 10,< 20,≤ 50
"CC(C)Cc1ccc(-c2cnc(-c3ccc(CN4CC(C(=O)O)C4)cc3)s2)cc1 [Example 48, 1-(4-(5-(4-isobutylphenyl)thiazol-2-yl)benzyl)azetidine-3-carboxylic acid]",20 to 50,≤ 1,< 20,≤ 50
"CC(C)Oc1ccc(-c2cnc(-c3ccc(CN4CC(C(=O)O)C4)cc3)s2)cc1C#N [Example 50, 1-(4-(5-(3-cyano-4-isopropoxyphenyl)thiazol-2-yl)benzyl)azetidine-3-carboxylic acid]",20 to 50,≤ 1,< 20,≤ 50
"O=C(O)C1CN(Cc2ccc(-c3ncc(-c4ccc(OC5CCC5)cc4)s3)cc2)C1 [Example 51, 1-(4-(5-(4-cyclobutoxyphenyl)thiazol-2-yl)benzyl)azetidine-3-carboxylic acid]",20 to 50,≤ 100,< 20,≤ 500
"Cc1cc(-c2cnc(-c3ccc(CN4CC(C(=O)O)C4)cc3)s2)ccc1OC(C)C [Example 52, 1-(4-(5-(4-isopropoxy-3-methylphenyl)thiazol-2-yl)benzyl)azetidine-3-carboxylic acid]",20 to 50,≤ 1,< 20,≤ 50
"CC(C)Oc1ccc(-c2cnc(-c3ccc(CN4CC(C(=O)O)C4)cc3)s2)cc1F [Example 53, 1-(4-(5-(3-fluoro-4-isopropoxyphenyl)thiazol-2-yl)benzyl)azetidine-3-carboxylic acid]",20 to 50,≤ 10,< 20,≤ 500
"CC(C)Oc1ccc(-c2cnc(-c3ccc(CN4CC(C(=O)O)C4)cc3)s2)c(C(F)(F)F)c1 [Example 55, 1-(4-(5-(4-isopropoxy-2-(trifluoromethyl)phenyl)thiazol-2-yl)benzyl)azetidine-3-carboxylic acid]",< 20,≤ 10,< 20,≤ 500
"CC(C)Oc1ccc(-c2cnc(-c3ccc(CN4CC(C(=O)O)C4)cc3)s2)cc1C(F)(F)F [Example 56, 1-(4-(5-(4-isopropoxy-3-(trifluoromethyl)phenyl)thiazol-2-yl)benzyl)azetidine-3-carboxylic acid]",20 to 50,≤ 1,< 20,≤ 100
"CC(C)Oc1ccc(-c2cnc(-c3ccc(CN4CC(C(=O)O)C4)c(F)c3)s2)cc1Cl [Example 57, 1-(4-(5-(3-chloro-4-isopropoxyphenyl)thiazol-2-yl)-2-fluorobenzyl)azetidine-3-carboxylic acid]",< 20,≤ 1,< 20,≤ 50
"CC(C)Oc1ccc(-c2cnc(-c3ccc(CN4CC(C(=O)O)C4)c(C(F)(F)F)c3)s2)cc1Cl [Example 58, 1-(4-(5-(3-chloro-4-isopropoxyphenyl)thiazol-2-yl)-2-(trifluoromethyl)benzyl)azetidine-3-carboxylic acid]",< 20,≤ 1,< 20,≤ 50
"CC(C)Cc1ccc(-c2cnc(-c3ccc(CN4CC(C(=O)O)C4)cc3F)s2)cc1C#N [Example 59, 1-(4-(5-(3-cyano-4-isobutylphenyl)thiazol-2-yl)-3-fluorobenzyl)azetidine-3-carboxylic acid]",< 20,≤ 1,< 20,≤ 50
"CC(C)Oc1ccc(-c2cnc(-c3ccc(CN4CC(C(=O)O)C4)cc3Cl)s2)cc1Cl [Example 60, 1-(3-chloro-4-(5-(3-chloro-4-isopropoxyphenyl)thiazol-2-yl)benzyl)azetidine-3-carboxylic acid]",20 to 50,≤ 1,< 20,≤ 10
"COc1cc(CN2CC(C(=O)O)C2)ccc1-c1ncc(-c2ccc(OC(C)C)c(Cl)c2)s1 [Example 61, 1-(4-(5-(3-chloro-4-isopropoxyphenyl)thiazol-2-yl)-3-methoxybenzyl)azetidine-3-carboxylic acid]",< 20,≤ 100,< 20,≤ 10
"Cc1cc(-c2ncc(-c3ccc(OC(C)C)c(Cl)c3)s2)ccc1CN1CC(C(=O)O)C1 [Example 62, 1-(4-(5-(3-chloro-4-isopropoxyphenyl)thiazol-2-yl)-2-methylbenzyl)azetidine-3-carboxylic acid]",20 to 50,≤ 1,< 20,≤ 10
"CC(C)Oc1ccc(-c2cnc(-c3ccc(CN4CC(C(=O)O)C4)c(Cl)c3)s2)cc1Cl [Example 63, 1-(2-chloro-4-(5-(3-chloro-4-isopropoxyphenyl)thiazol-2-yl)benzyl)azetidine-3-carboxylic acid]",< 20,≤ 1,< 20,≤ 50
"COc1cc(-c2ncc(-c3ccc(OC(C)C)c(Cl)c3)s2)ccc1CN1CC(C(=O)O)C1 [Example 64, 1-(4-(5-(3-chloro-4-isopropoxyphenyl)thiazol-2-yl)-2-methoxybenzyl)azetidine-3-carboxylic acid]",< 20,≤ 10,< 20,≤ 10
